Results taken from US11975111B2, “Dactinomycin compositions and methods for the treatment of myelodysplastic syndrome and acute myeloid leukemia” (Tiziana Life Sciences PLC, priority 2016, dated 2024).
*1 amine or outer side, *2 acyl side, *3 side chain or, on linkers, in order; H or OH if unused. Where a SMILES comes first, the peptide text is derived from it. Bridges are numbered along the chain shown (N, C = ends). Roman numbers before positions name the chains, in order. [ ]: non-standard residue; d: D form. Actinocin(9to1) = Cc1c2oc3c(C)ccc(C(=O)[*:1])c3nc-2c(C(=O)[*:2])c(N)c1=O; NMeV = CN[CH](C(=O)O)C(C)C; Sar = CNCC(=O)O

Assays:
[1] = Single dose intravenous tolerability in rats, 900 μg/kg; type: in vivo, Female Sprague Dawley rats; settings: for clinical observations, signs of toxicity: post-dose observation
Experimental: A side by side comparison of the tolerability of free actinomycin D (i.e., not in a nanoparticle) and four compositions comprising actinomycin D nanoparticles (NP-ActD) formulations in rats when dosed by intravenous administration.
Female Sprague Dawley rats (HSd:SD), 6-8 weeks and 150-175 g at dosing were used for these studies. This is a single dose study with observations for 14 days post-dose. On day 1 of the study, each animal received either 900 μg/kg of the free actinomycin D or a NP-ActD formulations (900 μg/kg of the active) in a fixed volume of 1 mL/kg according to the study design in the Table below.
The following parameters were monitored: clinical observations daily, mortality, body weights, and food consumption. A full necropsy will be conducted on Day 14 post-dose, at which time organ weights and macroscopic findings will be determined. The organs will be preserved for future histology and the lungs, liver, pancreas, spleen, brain and kidneys will be frozen in liquid nitrogen for measurement of actinomycin D/NP-ActD accumulation.
Blood was collected for pharmacokinetic evaluation following dosing on Day 1 at 0.083, 0.25, 0.5, 1, 2, 6, and 24 hours post dose. Serum samples will be collected for clinical chemistry and whole blood samples for hematology.

[2] = Pharmacokinetics in rats, single dose 0.3 mg/kg IV; type: in vivo
Experimental: Rats administered single dose (0.3 mg/kg) of unformulated and formulated Actinomycin D via IV injection. (FIG. 31)
Processed plasma samples at indicated times extracted in mixture of methanol and formic acid to determine total (free and encapsulated) API in systemic circulation.

[3] = system: NPM1-mutated cell line OCI/AML3; test: Act-D induced nucleolar disintegration and apoptosis (NPM1/DAPI photographs); type: cell-based; settings: OCI/AML3, FIG. 3
Text: NPM1=Nucleophosmin and DAPI=4′,6-diamidino-2-phenylindole—a fluorescent stain that binds strongly to A-T rich regions in DNA.

[4] = system: NPM1-mutated AML; test: Treatment of AML patients with dactinomycin alone or with low-dose cytarabine; type: in vivo, human
Experimental: FIG. 5 is a chart showing sequencing by the TruSight Myeloid Panel.—mutated genes (*).
FIG. 7 is a photograph of a computerized tomography (CT) scan showing pneumonitis in a subject administered dactinomycin at 15 μg/kg for 5 days.
FIGS. 9A and B are a pair of photographs depicting a bone marrow (BM) examination before and after therapy with dactinomycin alone.
Complete blood count (CBC) d=46, white blood cell 4130/mm^3, neutrophil percent (N=66%), hemoglobin (Hb)=7.7 g/dL, platelet (PLT) count 192.000/mm^3. Erythropoietin (EPO) dosage=17.8 mUl/ml (inappropriate response). Patient started on Darbopoetina.
Dactinomycin compositions of the disclosure may be administered with FLT3 inhibitors. […] There are two types of FLT3 mutations: internal tandem duplications (ITD) near the juxtamembrane domain of the receptor and point mutations in the activation loop of the tyrosine kinase domain (TKD mutations). TKD mutations comprise approximately 7% of patients, while ITD mutations are less prevalent in pediatrics and AML patients who were previously categorized as having MDS. (Fathi, A. T. et al. Eur. J. Haematol. 2017, 98: 330-336.)

[5] = cited from earlier work
[6] = Tolerability in rats, 0.5 mg/kg IV, body weight; type: in vivo; settings: over 7 days post treatment
Experimental: (§1) Free and formulated actinomycin D (0.5 mg/kg) was administered via IV
(§2) In another experiment, rats were also administered a single dose (0.5 mg/kg) of free and formulated Act D via IV (intravenous) injection.

[7] = system: p53; test: Western blots of p53 activation in patient tumor cells; type: cell-based, human; settings: NPM1-mutated AML tumor cells contacted in vitro or in vivo, 2 cycles of 5 consecutive days at 12.5 μg/kg
[8] = Plasma dactinomycin (CMAX, 6 hr) in rat tolerability study, 0.5 mg/kg IV; type: in vivo; settings: rats, comparison in words
Experimental: as §1, §2

## Cc1c2oc3c(C)ccc(C(=O)NC4C(=O)NC(C(C)C)C(=O)N5CCCC5C(=O)N(C)CC(=O)N(C)C(C(C)C)C(=O)OC4C)c3nc-2c(C(=O)NC2C(=O)NC(C(C)C)C(=O)N3CCCC3C(=O)N(C)CC(=O)N(C)C(C(C)C)C(=O)OC2C)c(N)c1=O (stereo not drawn) [dactinomycin, 2-amino-N,N′-bis(hexadecahydro-2,5,9-trimethyl-6,13-bis(1-methylethyl)-1,4,7,11,14-pentaoxo-1H-pyrrolo(2,1-I)(1,4,7,10,13)oxatetra-azacyclohexadecin-10-yl)-4,6-dimethyl-3-oxo-3H-phenoxazine-1,9-dicarboxamide] (I: TVP[Sar][NMeV] / II: TVP[Sar][NMeV]; ester I:1-I:C, II:1-II:C; linker I:N-II:N via Actinocin(9to1); configuration not given here)
[1]; 13 days post-dose
  mortality rate: about 80%
[1]; Day 7 post dose, 6 rats per group
  additional animals euthanized: two
[1]; Day 9, 6 rats per group
  more animals euthanized: two
[1]; day 6 post-dose, 6 rats per group
  animals moribund and euthanized: 1 animal
[1]; rats, 900 μg/kg IV single dose, FIG. 32
  body weights: consistently decreased body weights
[1]; rats, 900 μg/kg IV single dose, listed as free Act D
  clinical observations, signs of toxicity: piloerection, decreased activity, bleeding at the nares, and hunched posture
[1]; rats, 900 μg/kg IV single dose, listed as free ActD
  clinical observations, signs of toxicity: piloerection and discolored urine
[1]; thirteen days post-dose
  animals remained: 1/6
[2]; extrapolated to humans
  Theoretical Cmax in Humans: 7.5 ng/mL
[2]; rat, plasma, 0.3 mg/kg, rats, IV
  Cmax: 60 ng/mL
[3]
  nucleolar disintegration and apoptosis: induced nucleolar disintegration and apoptosis
[4]; Patient, FIG. 5
  mutated genes by TruSight Myeloid Panel sequencing after treatment: NMP1, IDH2 and STAG2 mutations not detected
[4]; before and after therapy
  bone marrow (BM) examination after therapy: marked reduction of leukemic blast infiltration with partial normal hematopoietic recovery
[4]; clinical trials, AML patients
  efficacy in clinical trials: about 60 % of the patients treated
[4]; following one cycle of treatment, FIG. 8
  hematological recovery: hematological recovery
[4]; subject administered 15 μg/kg for 5 days
  CT scan finding: pneumonitis
[5]; patients showing adverse events, IV 1 mg/m^2 or 1.5 mg/m^2
  AUC0-6 hrs in patients showing adverse events: 4 mg·min/L
[5]; ratio
  AUC0-6 hrs, patients with adverse events versus without: 1.46 times higher
[5]; subjects not showing adverse events, IV 1 mg/m^2 or 1.5 mg/m^2
  AUC0-6 hrs in subjects not showing adverse events: 2.67 mg·min/L
[6]; listed as free API
  body weight: significant decrease in body weight
[6]; listed as free dactinomycin
  body weight: significant decrease in body weight
[6]; listed as unformulated API
  body weight: adverse effect on body weight
[7]
  p53 activation (Western blot): p53 activation
[8]
  CMAX, total (free and encapsulated) dactinomycin in plasma: lower
